According to ChEMBL document CHEMBL4414609, “High-Affinity Alkynyl Bisubstrate Inhibitors of Nicotinamide N-Methyltransferase (NNMT)” (J Med Chem, 2019):

Key:
[1] = target: T1, Nicotinamide N-methyltransferase (Homo sapiens, UniProt P40261); experiment: Inhibition of N-terminal His6-tagged wild type human NNMT expressed in Escherichia coli NiCo21(DE3) assessed as reduction in 1-methylquinolinium level using quinoline as substrate in presence of SAM and measured every 27 seconds for 5.5 mins by fluorescence-based assay; conditions: read-out: pKi (converted)
T1 sequence (P40261 whole entry): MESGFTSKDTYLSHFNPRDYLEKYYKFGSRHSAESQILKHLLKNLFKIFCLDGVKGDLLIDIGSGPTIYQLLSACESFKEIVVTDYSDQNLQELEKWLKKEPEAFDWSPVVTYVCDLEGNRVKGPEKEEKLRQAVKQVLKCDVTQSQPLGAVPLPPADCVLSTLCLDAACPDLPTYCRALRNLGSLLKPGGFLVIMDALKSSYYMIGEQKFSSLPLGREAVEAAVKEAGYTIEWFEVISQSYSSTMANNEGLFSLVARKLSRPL

U2OS = experiment: Cytotoxicity against human U2OS cells at 100 uM after 48 hrs by CellTiter-Glo luminescent cell viability; format: cell-based
[2] = Permeability across apical to basolateral side in human Caco2 cells after 60 mins by HPLC-MS/MS analysis; format: ADME, cell-based; conditions: caco-2, 1 h
[3] = target: T2, Nicotinamide N-methyltransferase (Homo sapiens) (UniProt P40261); conditions: K562, Lysate
T2 sequence (whole entry): T1 sequence (P40261 whole entry)

| Ki [1] | SMILES | further results |
| --- | --- | --- |
| 32.4 nM | NC(=O)c1cc(C#C[C@@H](CC[C@H](N)C(=O)O)C[C@H]2O[C@@H](n3cnc4c(N)ncnc43)[C@H](O)[C@@H]2O)c2c(c1)OCO2 |  |
| 1050 nM | NC(=O)CCC[C@H](C#Cc1cccc(C(N)=O)c1)C[C@H]1O[C@@H](n2cnc3c(N)ncnc32)[C@H](O)[C@@H]1O |  |
| 0.191 nM | NC(=O)c1cc(C#C[C@@H](CC[C@H](N)C(=O)O)C[C@H]2O[C@@H](n3cnc4c(N)ncnc43)[C@H](O)[C@@H]2O)ccc1Cl |  |
| 12600 nM | Nc1ncnc2c1ncn2[C@@H]1O[C@H](C[C@@H](C#Cc2ccccc2)CC[C@H](N)C(=O)O)[C@@H](O)[C@H]1O |  |
| 89.1 nM | NC(=O)c1cccc(CCN(CCC[C@H](N)C(=O)O)C[C@H]2O[C@@H](n3cnc4c(N)ncnc43)[C@H](O)[C@@H]2O)c1 |  |
| 17 nM | NC(=O)c1cccc(C#C[C@@H](CC[C@H](N)C(N)=O)C[C@H]2O[C@@H](n3cnc4c(N)ncnc43)[C@H](O)[C@@H]2O)c1 | Activity (U2OS): Non-Toxic; permeability [2]: Impermeable |
| 2.63 nM | NC(=O)c1cc(C#C[C@@H](CC[C@H](N)C(=O)O)C[C@H]2O[C@@H](n3cnc4c(N)ncnc43)[C@H](O)[C@@H]2O)ccc1C(F)(F)F |  |
| 47900 nM | C#C[C@@H](CC[C@H](N)C(=O)O)C[C@H]1O[C@@H](n2cnc3c(N)ncnc32)[C@H](O)[C@@H]1O |  |
| 263 nM | NC(=O)c1cccc(C#CCC[C@H]2O[C@@H](n3cnc4c(N)ncnc43)[C@H](O)[C@@H]2O)c1 |  |
| 195 nM | Nc1ncnc2c1ncn2[C@@H]1O[C@H](C[C@@H](C#Cc2cccc(S(N)(=O)=O)c2)CC[C@H](N)C(=O)O)[C@@H](O)[C@H]1O |  |
| 437 nM | COC(=O)[C@@H](N)CC[C@H](C#Cc1cccc(C(N)=O)c1)C[C@H]1O[C@@H](n2cnc3c(N)ncnc32)[C@H](O)[C@@H]1O | Activity (U2OS): Non-Toxic; permeability [2]: Impermeable |
| 19500 nM | NC(=O)c1ccccc1C#C[C@@H](CC[C@H](N)C(=O)O)C[C@H]1O[C@@H](n2cnc3c(N)ncnc32)[C@H](O)[C@@H]1O |  |

Continued, compound first:

| SMILES | Ki [1] | further results |
| --- | --- | --- |
| NC(=O)c1cncc(C#C[C@@H](CC[C@H](N)C(=O)O)C[C@H]2O[C@@H](n3cnc4c(N)ncnc43)[C@H](O)[C@@H]2O)c1 | 5.01 nM |  |
| NCCC[C@H](C#Cc1cccc(C(N)=O)c1)C[C@H]1O[C@@H](n2cnc3c(N)ncnc32)[C@H](O)[C@@H]1O | 57.5 nM | Activity (U2OS): Non-Toxic; permeability [2]: 1.3 ×10⁻⁶ cm/s |
| NC(=O)NCC[C@H](C#Cc1cccc(C(N)=O)c1)C[C@H]1O[C@@H](n2cnc3c(N)ncnc32)[C@H](O)[C@@H]1O | 75.9 nM | Activity (U2OS): Non-Toxic; ΔTm [3]: 5 °C; permeability [2]: Impermeable |
| NC(=O)c1cccc(C#C[C@@H](CCCC(=O)O)C[C@H]2O[C@@H](n3cnc4c(N)ncnc43)[C@H](O)[C@@H]2O)c1 | 22400 nM |  |
| NC(=O)c1cccc(CC[C@@H](CC[C@H](N)C(=O)O)C[C@H]2O[C@@H](n3cnc4c(N)ncnc43)[C@H](O)[C@@H]2O)c1 | 4.68 nM |  |
| Nc1cccc2c(C#C[C@@H](CC[C@H](N)C(=O)O)C[C@H]3O[C@@H](n4cnc5c(N)ncnc54)[C@H](O)[C@@H]3O)cccc12 | 3720 nM |  |
| NC(=O)c1ccnc(C#C[C@@H](CC[C@H](N)C(=O)O)C[C@H]2O[C@@H](n3cnc4c(N)ncnc43)[C@H](O)[C@@H]2O)c1 | 35.5 nM |  |
| Nc1ncnc2c1ncn2[C@@H]1O[C@H](C[C@@H](C#Cc2ccc3c(c2)C(=O)NC3)CC[C@H](N)C(=O)O)[C@@H](O)[C@H]1O | 1860 nM |  |
| NC(=O)c1cccc(C#C[C@@H](CCC[C@H](N)C(=O)O)C[C@H]2O[C@@H](n3cnc4c(N)ncnc43)[C@H](O)[C@@H]2O)c1 | 0.24 nM |  |
| NC(=O)c1cc(C#C[C@@H](CC[C@H](N)C(=O)O)C[C@H]2O[C@@H](n3cnc4c(N)ncnc43)[C@H](O)[C@@H]2O)ccn1 | 8.91 nM |  |
| NC(=O)c1ccc(C#C[C@@H](CC[C@H](N)C(=O)O)C[C@H]2O[C@@H](n3cnc4c(N)ncnc43)[C@H](O)[C@@H]2O)cc1 | 5750 nM |  |
| CO[C@@H]1O[C@H](C[C@@H](C#Cc2cccc(C(N)=O)c2)CC[C@H](N)C(=O)O)[C@@H](O)[C@H]1O | 77600 nM |  |
| Nc1ncnc2c1ncn2[C@@H]1O[C@H](CCCC[C@H](N)C(=O)O)[C@@H](O)[C@H]1O | 21400 nM |  |
| Cc1ccc(C#C[C@@H](CC[C@H](N)C(=O)O)C[C@H]2O[C@@H](n3cnc4c(N)ncnc43)[C@H](O)[C@@H]2O)cc1C(N)=O | 3.39 nM |  |
| NC(=O)c1cccc(CCN(CC[C@H](N)C(=O)O)C[C@H]2O[C@@H](n3cnc4c(N)ncnc43)[C@H](O)[C@@H]2O)c1 | 912 nM |  |
| NC(=O)c1cc(C#C[C@@H](CC[C@H](N)C(=O)O)C[C@H]2O[C@@H](n3cnc4c(N)ncnc43)[C@H](O)[C@@H]2O)ccc1F | 1.86 nM |  |
| Nc1ncnc2c1ncn2[C@@H]1O[C@H](C[C@@H](C#Cc2ccc3c(c2)C(=O)NCC3)CC[C@H](N)C(=O)O)[C@@H](O)[C@H]1O | 55 nM |  |
| NC(=O)c1cccc(C#C[C@H](CC[C@H](N)C(=O)O)C[C@H]2O[C@@H](n3cnc4c(N)ncnc43)[C@H](O)[C@@H]2O)c1 | 123 nM |  |
| NC(=O)c1cccc(C#C[C@@H](CC[C@H](N)C(=O)O)C[C@H]2O[C@@H](n3cnc4c(N)ncnc43)[C@H](O)[C@@H]2O)n1 | 6.76 nM |  |
| NC(=O)c1cccc(CC[C@H](CC[C@H](N)C(=O)O)C[C@H]2O[C@@H](n3cnc4c(N)ncnc43)[C@H](O)[C@@H]2O)c1 | 107 nM |  |
| NC(=O)c1cccc(C#C[C@@H]2C[C@H]2[C@H]2O[C@@H](n3cnc4c(N)ncnc43)[C@H](O)[C@@H]2O)c1 | 3890 nM |  |
